What was measured:
Assay in all cases: In vitro cytotoxicity assay (MTT)
JIMT-1 = assay type: cell-based, human; conditions: 6 days incubation
Method: (§1) In vitro cytotoxicity of compounds of the disclosure was assessed on several cancerous human cell lines. Cells were plated in 96-well plates at an appropriate density depending on the cell line (between 1000 and 10 000 cells/well in 100µL of appropriate culture media) and incubated at 37°C for 24 hours. Serial dilutions of the tested compound previously dissolved in culture media (50µL) were added, and incubation was carried at 37°C out for 6 days. MTT (5mg/mL in PBS, 20µL, Sigma-Aldrich) was added into the wells, and incubation was continued for 1 to 4 hours at 37°C. Culture media was then carefully removed, and well content was homogeneously dissolved with acidified isopropanol. Absorbance values were measured on a microplate reader using a wavelength of 570 nm (with a reference wavelength of 690 nm). The IC50 concentration values compared to untreated control cells were determined using inhibition dose response curve fitting (GraphPad Prism 9). Exatecan mesylate (cat#HY-13631A) and CR8 (CAS# 294646-77-8; cat#HY-18340) were purchased from MedChemExpress (China).

MDA-MB-231 = assay type: cell-based, human; conditions: 6 days incubation
Method: as §1

BT-474 = assay type: cell-based, human; conditions: BT-474, 6 days incubation, MTT
Method: as §1

MDA-MB-453 = assay type: cell-based, human; conditions: 6 days incubation
Method: as §1

NCI-N87 = assay type: cell-based, human; conditions: 6 days incubation
Method: as §1

SKBR-3 = assay type: cell-based, human; conditions: 6 days incubation
Method: as §1

MCF-7 = assay type: cell-based; conditions: Homo sapiens, MCF7, 144 h, 6 days incubation
Method: as §1

HT-29 = assay type: cell-based; conditions: Homo sapiens, 144 h, 6 days incubation
Method: as §1

BXPC3 = assay type: cell-based; conditions: Homo sapiens, BXPC-3, 144 h, 6 days incubation
Method: as §1

[1] = Homo sapiens, MDA-MB-231, 144 h
[2] = Homo sapiens, MDA-MB-453, 144 h

| Compound | IC50 (JIMT-1; Homo sapiens, 144 h) [nM] | IC50 (MDA-MB-231; [1]) [nM] | IC50 (BT-474; Homo sapiens, BT-474, 144 h) [nM] | IC50 (MDA-MB-453; [2]) [nM] | IC50 (NCI-N87; Homo sapiens, NCI-N87, 144 h) [nM] | IC50 (SKBR-3; Homo sapiens, SK-BR-3, 144 h) [nM] | IC50 (MCF-7) [nM] | IC50 (HT-29) [nM] | IC50 (BXPC3) [nM] | IC50 (MDA-MB-231) [nM] | IC50 (BT-474) [nM] | IC50 (MDA-MB-453) [nM] | IC50 (NCI-N87) [nM] | IC50 (SKBR-3) [nM] | IC50 (JIMT-1) [nM] |
| --- | --- | --- | --- | --- | --- | --- | --- | --- | --- | --- | --- | --- | --- | --- | --- |
| Brc1cnn2c(NCc3ccc(-c4ccccn4)cc3)nc(NCC3CCNCC3)nc12 [Compound 2569] | 6.7 | 11.2 | 15.2 | 12.8 | 19.7 | 62.6 |  |  |  |  |  |  |  |  |  |
| Nc1ccc(Nc2nc(NCc3ccc(-c4ccccn4)cc3)n3ncc(Br)c3n2)cc1 [Compound 2584] | 7.61 | 7.17 | 9.72 | 12.3 | 9.44 | 25.9 |  |  |  |  |  |  |  |  |  |
| N[C@H]1CCCC[C@H]1Nc1nc(NCc2ccc(-c3ccccn3)cc2)n2ncc(Br)c2n1 [Compound 2672] |  | 0.46 | 2.12 | 0.76 | 0.55 | 0.24 |  |  |  |  |  |  |  |  |  |
| NC1CCN(c2nc(NCc3ccc(-c4ccccn4)cc3)n3ncc(Br)c3n2)CC1 [Compound 2559] | 0.41 | 1.35 | 2.63 | 1.52 | 1.32 | 3.73 | 12.8 | 0.21 | 1.63 |  |  |  |  |  |  |
| CNCCNc1nc(NCc2ccc(-c3ccccn3)cc2)n2ncc(Br)c2n1 [Compound 2586] | 1.13 | 1.44 | 1.73 | 2.47 | 3.14 | 6.59 | 33.9 | 0.45 | 2.44 |  |  |  |  |  |  |
| Brc1cnn2c(NCc3ccc(-c4ccccn4)cc3)nc(N3CCNCC3)nc12 [Compound 2601] | 0.45 | 0.86 | 1.86 | 1.92 | 2.7 | 3.61 | 15.4 | 0.13 | 1.72 |  |  |  |  |  |  |
| N[C@H]1CC[C@H](Nc2nc(NCc3ccc(-c4ccccn4)cc3)n3ncc(Cl)c3n2)CC1 [Compound 2629] | 0.11 | 0.66 | 1.75 | 0.77 | 0.94 | 0.27 | 3.91 | 0.36 | 1.17 |  |  |  |  |  |  |
| O[C@H]1CN[C@H](CNc2nc(NCc3ccc(-c4ccccn4)cc3)n3ncc(Br)c3n2)C1 [Compound 2538] | 5.13 | 8.75 | 6.54 | 8.12 | 21.6 | 39.1 |  |  |  |  |  |  |  |  |  |
| NCCCNc1nc(NCc2ccc(-c3ccccn3)cc2)n2ncc(Br)c2n1 [Compound 2658] |  | 1.98 | 4.57 | 7.84 | 6.43 | 0.77 |  |  |  |  |  |  |  |  |  |
| Brc1cnn2c(NCc3ccc(-c4ccccn4)cc3)nc(N3CCC(N4CCNCC4)CC3)nc12 [Compound 2622] | 4.84 | 12.7 | 13.5 | 21.1 | 3 | 2.24 | > 100 | 8.25 | 36.1 |  |  |  |  |  |  |
| Brc1cnn2c(NCc3ccc(-c4ccccn4)cc3)nc(NC3CCCNC3)nc12 (racemic) [Compound 2606] | 0.88 | 0.46 | 0.92 | 0.64 | 0.77 | 1.23 | 6.88 | 0.13 | 1.16 |  |  |  |  |  |  |
| Brc1cnn2c(NCc3ccc(-c4ccccn4)cc3)nc(N[C@@H]3CCCNC3)nc12 [Compound 2660, 8-bromo-N2-[(3R)-piperidin-3-yl]-N4-{[4-(pyridin-2-yl)phenyl]methyl}pyrazolo[1,5-a][1 ,3,5]triazine-2,4-diamine] |  |  |  |  |  |  |  |  |  | 0.43 | 1.25 | 0.68 | 0.49 | 0.11 |  |
| Brc1cnn2c(NCc3ccc(-c4ccccn4)cc3)nc(N[C@@H]3CCNC3)nc12 [Compound 2656] |  | 0.65 | 2.52 | 1.13 | 1.42 | 0.17 |  |  |  |  |  |  |  |  |  |
| N[C@H]1CC[C@H](CNc2nc(NCc3ccc(-c4ccccn4)cc3)n3ncc(Br)c3n2)CC1 [Compound 2635] | 3.52 | 12.9 | 23.1 | 17.9 | 15.9 | 0.83 | > 100 | 8.93 | 39.7 |  |  |  |  |  |  |
| NCCNc1nc(NCc2ccc(-c3ccccn3)cc2)n2ncc(Br)c2n1 [Compound 2638] |  | 0.3 | 0.78 | 0.88 | 0.42 | 0.82 |  |  |  |  |  |  |  |  |  |
| N[C@H]1CC[C@H](Nc2nc(NCc3ccc(-c4ccccn4)cc3)n3ncc(I)c3n2)CC1 [Compound 2590] | 0.29 | 0.74 | 1.33 | 1.76 | 2.42 | 2.55 |  |  |  |  |  |  |  |  |  |
| N#Cc1cnn2c(NCc3ccc(-c4ccccn4)cc3)nc(N[C@H]3CC[C@H](N)CC3)nc12 [Compound 2478] |  |  |  |  |  |  |  |  |  | 1.64 | 1.72 | 1.34 | 6.88 | 17.6 | 1.18 |
| Brc1cnn2c(Nc3ccc(CN4CCOCC4)cc3)nc(NC3CCNCC3)nc12 [Compound 2554] |  |  |  |  |  |  |  |  |  | > 100 | > 100 | > 100 | > 100 | > 100 | > 100 |
| Brc1cnn2c(NCc3ccc(-c4ccccn4)cc3)nc(N[C@H]3CCNC3)nc12 [Compound 2657] |  |  |  |  |  |  |  |  |  | 0.56 | 1.71 | 0.77 | 0.43 | 0.13 |  |
| N[C@H]1CC[C@H](Nc2nc(NCc3ccc(-c4ccccn4)cc3)n3ncc(Br)c3n2)C1 [Compound 2669] |  | 0.44 | 1.75 | 0.59 | 0.39 | 0.67 |  |  |  |  |  |  |  |  |  |
| N[C@H]1CC[C@H](Nc2nc(Nc3ccc(CN4CCOCC4)cc3)n3ncc(Br)c3n2)CC1 [Compound 2533] | > 100 | > 100 | > 100 | > 100 | > 100 | > 100 |  |  |  |  |  |  |  |  |  |
| Brc1cnn2c(NCc3ccc(-c4ccccn4)cc3)nc(N[C@@H]3CCCNC3)nc12 [Compound 2659, 8-bromo-N2-[(3R)-piperidin-3-yl]-N4-{[4-(pyridin-2-yl)phenyl]methyl}pyrazolo[1 ,5-a][1 ,3,5]triazine-2,4-diamine] |  | 0.26 | 0.72 | 0.4 | 0.34 |  |  |  |  |  |  |  |  | 0.72 |  |

— EP4512427A1, “ANTIBODY-DRUG CONJUGATES BASED ON MOLECULAR GLUE DEGRADERS AND USES THEREOF” (Mablink Bioscience, priority 2023, dated 2025)
